{
  "source": "ChEMBL document CHEMBL4665624",
  "about": "“Synthesis of 5-(4-(1H-phenanthro[9,10-d]imidazol-2-yl)benzylidene)thiazolidine-2,4-dione as promising DNA and serum albumin-binding agents and evaluation of antitumor activity” (Eur J Med Chem, 2019)",
  "key": {"CCRF-CEM": {"test_system": "CCRF-CEM", "assay": "Antitumor activity against human CCRF-CEM cells assessed as cell growth inhibition at 10 uM incubated for 48 hrs by sulforhodamine B assay", "type": "functional", "conditions": "read-out: GI"}, "HL-60(TB)": {"test_system": "HL-60(TB)", "assay": "Antitumor activity against human HL-60(TB) cells assessed as cell growth inhibition at 10 uM incubated for 48 hrs by sulforhodamine B assay", "type": "functional", "conditions": "read-out: GI"}, "K562": {"test_system": "K562", "assay": "Antitumor activity against human K562 cells assessed as cell growth inhibition at 10 uM incubated for 48 hrs by sulforhodamine B assay", "type": "functional", "conditions": "read-out: GI"}, "MOLT-4": {"test_system": "MOLT-4", "assay": "Antitumor activity against human MOLT4 cells assessed as cell growth inhibition at 10 uM incubated for 48 hrs by sulforhodamine B assay", "type": "functional", "conditions": "read-out: GI"}, "RPMI-8226": {"test_system": "RPMI-8226", "assay": "Antitumor activity against human RPMI8226 cells assessed as cell growth inhibition at 10 uM incubated for 48 hrs by sulforhodamine B assay", "type": "functional", "conditions": "read-out: GI"}, "SR": {"test_system": "SR", "assay": "Antitumor activity against human SR cells assessed as cell growth inhibition at 10 uM incubated for 48 hrs by sulforhodamine B assay", "type": "functional", "conditions": "read-out: GI"}, "HOP-92": {"test_system": "HOP-92", "assay": "Antitumor activity against human HOP92 cells assessed as cell growth inhibition at 10 uM incubated for 48 hrs by sulforhodamine B assay", "type": "functional", "conditions": "read-out: GI"}, "NCI-H226": {"test_system": "NCI-H226", "assay": "Antitumor activity against human NCI-H226 assessed as cell growth inhibition at 10 uM incubated for 48 hrs by sulforhodamine B assay", "type": "functional", "conditions": "read-out: GI"}, "NCI-H23": {"test_system": "NCI-H23", "assay": "Antitumor activity against human NCI-H23 cells assessed as cell growth inhibition at 10 uM incubated for 48 hrs by sulforhodamine B assay", "type": "functional", "conditions": "read-out: GI"}, "NCI-H522": {"test_system": "NCI-H522", "assay": "Antitumor activity against human NCI-H522 cells assessed as cell growth inhibition at 10 uM incubated for 48 hrs by sulforhodamine B assay", "type": "functional", "conditions": "read-out: GI"}, "HCT-116": {"test_system": "HCT-116", "assay": "Antitumor activity against human HCT116 cells assessed as cell growth inhibition at 10 uM incubated for 48 hrs by sulforhodamine B assay", "type": "functional", "conditions": "read-out: GI"}, "HCT-15": {"test_system": "HCT-15", "assay": "Antitumor activity against human HCT15 cells assessed as cell growth inhibition at 10 uM incubated for 48 hrs by sulforhodamine B assay", "type": "functional", "conditions": "read-out: GI"}, "KM12": {"test_system": "KM12", "assay": "Antitumor activity against human KM12 cells assessed as cell growth inhibition at 10 uM incubated for 48 hrs by sulforhodamine B assay", "type": "functional", "conditions": "read-out: GI"}, "SF-268": {"test_system": "SF-268", "assay": "Antitumor activity against human SF268 cells assessed as cell growth inhibition at 10 uM incubated for 48 hrs by sulforhodamine B assay", "type": "functional", "conditions": "read-out: GI"}, "SF-295": {"test_system": "SF-295", "assay": "Antitumor activity against human SF295 cells assessed as cell growth inhibition at 10 uM incubated for 48 hrs by sulforhodamine B assay", "type": "functional", "conditions": "read-out: GI"}, "SNB-75": {"test_system": "SNB-75", "assay": "Antitumor activity against human SNB-75 cells assessed as cell growth inhibition at 10 uM incubated for 48 hrs by sulforhodamine B assay", "type": "functional", "conditions": "read-out: GI"}, "U-251": {"test_system": "U-251", "assay": "Antitumor activity against human U251 cells assessed as cell growth inhibition at 10 uM incubated for 48 hrs by sulforhodamine B assay", "type": "functional", "conditions": "read-out: GI"}, "LOX IMVI": {"test_system": "LOX IMVI", "assay": "Antitumor activity against human LOX IMVI cells assessed as cell growth inhibition at 10 uM incubated for 48 hrs by sulforhodamine B assay", "type": "functional", "conditions": "read-out: GI"}, "Malme-3M": {"test_system": "Malme-3M", "assay": "Antitumor activity against human MALME-3M cells assessed as cell growth inhibition at 10 uM incubated for 48 hrs by sulforhodamine B assay", "type": "functional", "conditions": "read-out: GI"}, "SK-MEL-28": {"test_system": "SK-MEL-28", "assay": "Antitumor activity against human SK-MEL-28 cells assessed as cell growth inhibition at 10 uM incubated for 48 hrs by sulforhodamine B assay", "type": "functional", "conditions": "read-out: GI"}, "UACC-62": {"test_system": "UACC-62", "assay": "Antitumor activity against human UACC-62 cells assessed as cell growth inhibition at 10 uM incubated for 48 hrs by sulforhodamine B assay", "type": "functional", "conditions": "read-out: GI"}, "IGROV-1": {"test_system": "IGROV-1", "assay": "Antitumor activity against human IGROV1 cells assessed as cell growth inhibition at 10 uM incubated for 48 hrs by sulforhodamine B assay", "type": "functional", "conditions": "read-out: GI"}, "OVCAR-3": {"test_system": "OVCAR-3", "assay": "Antitumor activity against human OVCAR-3 cells assessed as cell growth inhibition at 10 uM incubated for 48 hrs by sulforhodamine B assay", "type": "functional", "conditions": "read-out: GI"}, "OVCAR-4": {"test_system": "OVCAR-4", "assay": "Antitumor activity against human OVCAR-4 cells assessed as cell growth inhibition at 10 uM incubated for 48 hrs by sulforhodamine B assay", "type": "functional", "conditions": "read-out: GI"}, "NCI/ADR-RES": {"test_system": "NCI/ADR-RES", "assay": "Antitumor activity against human NCI/ADR-RES cells assessed as cell growth inhibition at 10 uM incubated for 48 hrs by sulforhodamine B assay", "type": "functional", "conditions": "read-out: GI"}, "SK-OV-3": {"test_system": "SK-OV-3", "assay": "Antitumor activity against human SK-OV-3 cells assessed as cell growth inhibition at 10 uM incubated for 48 hrs by sulforhodamine B assay", "type": "functional", "conditions": "read-out: GI"}, "ACHN": {"test_system": "ACHN", "assay": "Antitumor activity against human ACHN cells assessed as cell growth inhibition at 10 uM incubated for 48 hrs by sulforhodamine B assay", "type": "functional", "conditions": "read-out: GI"}, "SN12C": {"test_system": "SN12C", "assay": "Antitumor activity against human SN12C cells assessed as cell growth inhibition at 10 uM incubated for 48 hrs by sulforhodamine B assay", "type": "functional", "conditions": "read-out: GI"}, "UO-31": {"test_system": "UO-31", "assay": "Antitumor activity against human UO-31 cells assessed as cell growth inhibition at 10 uM incubated for 48 hrs by sulforhodamine B assay", "type": "functional", "conditions": "read-out: GI"}, "PC-3": {"test_system": "PC-3", "assay": "Antitumor activity against human PC-3 cells assessed as cell growth inhibition at 10 uM incubated for 48 hrs by sulforhodamine B assay", "type": "functional", "conditions": "read-out: GI"}, "MCF7": {"test_system": "MCF7", "assay": "Antitumor activity against human MCF7 cells assessed as cell growth inhibition at 10 uM incubated for 48 hrs by sulforhodamine B assay", "type": "functional", "conditions": "read-out: GI"}, "MDA-MB-231": {"test_system": "MDA-MB-231", "assay": "Antitumor activity against human MDA-MB-231/ATCC cells assessed as cell growth inhibition at 10 uM incubated for 48 hrs by sulforhodamine B assay", "type": "functional", "conditions": "read-out: GI"}, "BT-549": {"test_system": "BT-549", "assay": "Antitumor activity against human BT-549 cells assessed as cell growth inhibition at 10 uM incubated for 48 hrs by sulforhodamine B assay", "type": "functional", "conditions": "read-out: GI"}, "Hs-578T": {"test_system": "Hs-578T", "assay": "Cytotoxicity against human HS 578T cells assessed as cell death at 10 uM incubated for 48 hrs by sulforhodamine B assay", "type": "functional, cell-based"}, "A498": {"test_system": "A498", "assay": "Cytotoxicity against human A498 cells assessed as cell death at 10 uM incubated for 48 hrs by sulforhodamine B assay", "type": "functional, cell-based"}, "HCC 2998": {"test_system": "HCC 2998", "assay": "Cytotoxicity against human HCC2998 cells assessed as cell death at 10 uM incubated for 48 hrs by sulforhodamine B assay", "type": "functional, cell-based"}, "SW-620": {"test_system": "SW-620", "assay": "Antitumor activity against human SW620 cells assessed as cell growth inhibition at 10 uM incubated for 48 hrs by sulforhodamine B assay", "conditions": "SW-620, 48 h, read-out: GI"}},
  "note": "Active and inactive are the calls of the source. The calls are words filed in the database; no cut-off is given here.",
  "data": [
    {"smiles": "O=c1[nH]cc(F)c(=O)[nH]1", "note": "[FLUOROURACIL]", "values": [
      {"measurement": "inhibition of growth at 10 µM", "setting": "CCRF-CEM", "result": 57.1, "unit": "%"},
      {"measurement": "inhibition of growth at 10 µM", "setting": "HL-60(TB)", "result": 47.9, "unit": "%"},
      {"measurement": "inhibition of growth at 10 µM", "setting": "K562", "result": 42.3, "unit": "%"},
      {"measurement": "inhibition of growth at 10 µM", "setting": "MOLT-4", "result": 43.1, "unit": "%"},
      {"measurement": "inhibition of growth at 10 µM", "setting": "RPMI-8226", "result": 41.4, "unit": "%"},
      {"measurement": "inhibition of growth at 10 µM", "setting": "SR", "result": 24.8, "unit": "%"},
      {"measurement": "inhibition of growth at 10 µM", "setting": "HOP-92", "result": 50.6, "unit": "%"},
      {"measurement": "inhibition of growth at 10 µM", "setting": "NCI-H226", "result": 69.5, "unit": "%"},
      {"measurement": "inhibition of growth at 10 µM", "setting": "NCI-H23", "result": 39, "unit": "%"},
      {"measurement": "inhibition of growth at 10 µM", "setting": "NCI-H522", "result": 58, "unit": "%"},
      {"measurement": "inhibition of growth at 10 µM", "setting": "HCT-116", "result": 17.8, "unit": "%"},
      {"measurement": "inhibition of growth at 10 µM", "setting": "HCT-15", "result": 26.5, "unit": "%"},
      {"measurement": "inhibition of growth at 10 µM", "setting": "KM12", "result": 40.7, "unit": "%"},
      {"measurement": "inhibition of growth at 10 µM", "setting": "SF-268", "result": 59, "unit": "%"},
      {"measurement": "inhibition of growth at 10 µM", "setting": "SF-295", "result": 69, "unit": "%"},
      {"measurement": "inhibition of growth at 10 µM", "setting": "SNB-75", "result": 65.9, "unit": "%"},
      {"measurement": "inhibition of growth at 10 µM", "setting": "U-251", "result": 50.3, "unit": "%"},
      {"measurement": "inhibition of growth at 10 µM", "setting": "LOX IMVI", "result": 30.4, "unit": "%"},
      {"measurement": "inhibition of growth at 10 µM", "setting": "Malme-3M", "result": 58.2, "unit": "%"},
      {"measurement": "inhibition of growth at 10 µM", "setting": "SK-MEL-28", "result": 19.5, "unit": "%"},
      {"measurement": "inhibition of growth at 10 µM", "setting": "UACC-62", "result": 39.7, "unit": "%"},
      {"measurement": "inhibition of growth at 10 µM", "setting": "IGROV-1", "result": 51.2, "unit": "%"},
      {"measurement": "inhibition of growth at 10 µM", "setting": "OVCAR-3", "result": 47.4, "unit": "%"},
      {"measurement": "inhibition of growth at 10 µM", "setting": "OVCAR-4", "result": 59.4, "unit": "%"},
      {"measurement": "inhibition of growth at 10 µM", "setting": "NCI/ADR-RES", "result": 47.6, "unit": "%"},
      {"measurement": "inhibition of growth at 10 µM", "setting": "SK-OV-3", "result": 77.5, "unit": "%"},
      {"measurement": "inhibition of growth at 10 µM", "setting": "ACHN", "result": 39.3, "unit": "%"},
      {"measurement": "inhibition of growth at 10 µM", "setting": "SN12C", "result": 54, "unit": "%"},
      {"measurement": "inhibition of growth at 10 µM", "setting": "UO-31", "result": 41.3, "unit": "%"},
      {"measurement": "inhibition of growth at 10 µM", "setting": "PC-3", "result": 58.2, "unit": "%"},
      {"measurement": "inhibition of growth at 10 µM", "setting": "MCF7", "result": 11.5, "unit": "%"},
      {"measurement": "inhibition of growth at 10 µM", "setting": "MDA-MB-231", "result": 78.1, "unit": "%"},
      {"measurement": "inhibition of growth at 10 µM", "setting": "BT-549", "result": 37.8, "unit": "%"},
      {"measurement": "Activity", "setting": "Hs-578T", "result": "Active"},
      {"measurement": "Activity", "setting": "A498", "result": "Active"},
      {"measurement": "Activity", "setting": "HCC 2998", "result": "Active"},
      {"measurement": "inhibition of growth at 10 µM", "setting": "SW-620", "result": "< 10", "unit": "%"}
    ]}
  ]
}
